In paper PMC5587309, “Involvement of arginine 878 together with Ca^2+ in mouse aminopeptidase A substrate specificity for N-terminal acidic amino-acid residues” (PLoS ONE, 2017):
Positions count from the first letter of the chain named.

Assays:
Format in all cases: biochemical
[1] = target: T1, wild-type mAPA (Mus musculus, UniProt P16406); assay: Inhibition of GluNA hydrolysis by purified recombinant wild-type His-mAPA
T1 construct: made in house; host or cells: stably transfected CHO-K1 cells
T1 sequence (P16406 1-945): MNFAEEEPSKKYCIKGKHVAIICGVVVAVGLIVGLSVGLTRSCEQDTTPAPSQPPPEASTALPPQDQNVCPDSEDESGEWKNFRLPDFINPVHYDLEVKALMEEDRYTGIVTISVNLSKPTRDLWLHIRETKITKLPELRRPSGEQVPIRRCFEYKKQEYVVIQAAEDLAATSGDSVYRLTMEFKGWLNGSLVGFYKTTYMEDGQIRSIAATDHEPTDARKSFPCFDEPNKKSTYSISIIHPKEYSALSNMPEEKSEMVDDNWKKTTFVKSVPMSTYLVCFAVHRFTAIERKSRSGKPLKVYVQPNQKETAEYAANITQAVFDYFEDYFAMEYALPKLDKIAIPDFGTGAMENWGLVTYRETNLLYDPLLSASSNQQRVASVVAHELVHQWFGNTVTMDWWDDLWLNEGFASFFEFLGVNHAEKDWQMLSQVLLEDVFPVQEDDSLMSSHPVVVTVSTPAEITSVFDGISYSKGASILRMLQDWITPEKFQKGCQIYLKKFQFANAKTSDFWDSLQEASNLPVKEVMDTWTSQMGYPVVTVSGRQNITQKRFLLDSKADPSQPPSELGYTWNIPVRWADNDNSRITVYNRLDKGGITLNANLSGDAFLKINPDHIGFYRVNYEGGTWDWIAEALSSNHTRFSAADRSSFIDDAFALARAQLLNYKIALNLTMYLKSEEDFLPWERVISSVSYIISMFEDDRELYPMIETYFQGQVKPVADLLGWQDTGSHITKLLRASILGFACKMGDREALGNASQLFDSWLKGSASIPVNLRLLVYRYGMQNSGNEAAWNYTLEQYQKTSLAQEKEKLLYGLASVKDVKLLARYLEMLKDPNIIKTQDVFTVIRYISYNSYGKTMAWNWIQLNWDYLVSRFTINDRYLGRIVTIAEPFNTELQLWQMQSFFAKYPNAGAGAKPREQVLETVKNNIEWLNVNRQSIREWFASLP
Protocol: (§1) Enzyme assays were carried out for wild-type and mutated His-mAPAs in 50 mM Tris-HCl buffer, pH 7.4, with or without 4 mM CaCl2, by monitoring the rate of hydrolysis of GluNA, as previously described. The sensitivity to Ca^2+ of purified wild-type and mutated His-mAPA was determinated by incubating 0.5 mM GluNA with 0 to 4 mM CaCl2 in a final volume of 100 μl of 50 mM Tris-HCl buffer, pH 7.4. All the assays were performed in black 96-well plates (solid black 96-well flat-bottomed non-treated plates with no lid; Corning Costar). All of the enzymatic studies were performed such that substrate hydrolysis rates were maintained below 10% (initial rate conditions). The kinetic curves were monitored by following the increase in fluorescence at 460 nm (lex = 330 nm), induced by the release of the β-naphthylamide fluorogenic part of the substrate by APA. Fluorescence signals were monitored by counting photons with a spectrophotometer (Fusion universal microplate analyser; Packard) equipped with a temperature control device and a plate shaker. The kinetic parameters (Km and kcat) were determined from Michaelis-Menten plots, using GraphPad Prism 4 software (GraphPad) with a final concentration of substrate (GluNA) from 0.005 to 5 mM with or without 4 mM Ca^2+. For evaluation of the substrate specificity of APA with or without 4 mM Ca^2+, the rate of hydrolysis of […] additional substrates, α-L-aspartate-β-naphthylamide (AspNA), α-L-alanine-β-naphthylamide (AlaNA) and basic α-L-lysine-β-naphthylamide (LysNA), was determined under the same experimental conditions as described for GluNA. The sensitivity of wild-type and mutated His-mAPAs to inhibition by [(3S)-3-amino-4-sulfanyl-butane-1-sulfonic acid] (EC33), glutamate-thiol (GluSH), glutamate-phosphonic-acid (GluPO3H2), methionine-thiol (MetSH) and lysine-thiol (LysSH) was determined by establishing dose-dependent inhibition curves for a final GluNA concentration of 0.5 mM in the presence or absence of 4 mM CaCl2. These compounds being linear competitive inhibitors, their Ki were calculated from the formula Ki = IC50/ (1+ [GluNA]/Km).

[2] = target: T2, R878A mutated mAPA (Mus musculus, UniProt P16406, R878A); assay: Inhibition of GluNA hydrolysis by purified recombinant R878A His-mAPA
T2 construct: made in house; host or cells: stably transfected CHO-K1 cells
T2 sequence (P16406 1-945 R878A): T1 sequence (P16406 1-945) with R878A
Protocol: as §1

[3] = target: T3, R878K mutated mAPA (Mus musculus, UniProt P16406, R878K); assay: Inhibition of GluNA hydrolysis by purified recombinant R878K His-mAPA
T3 construct: made in house; host or cells: stably transfected CHO-K1 cells
T3 sequence (P16406 1-945 R878K): T1 sequence (P16406 1-945) with R878K
Protocol: as §1

[4] = target: T1, wild-type mAPA; assay: Ca2+ activation profile of GluNA hydrolysis by wild-type His-mAPA; conditions: 0.5 mM GluNA
Protocol: Enzyme assays were carried out for wild-type and mutated […] 50 mM Tris-HCl buffer, pH 7.4, with or without 4 mM CaCl2, by monitoring the rate of hydrolysis of GluNA, as previously described. The sensitivity to Ca^2+ of purified wild-type and mutated His-mAPA was determinated by incubating 0.5 mM GluNA with 0 to 4 mM CaCl2 in a final volume of 100 μl of 50 mM Tris-HCl buffer, pH 7.4. All the assays were performed in black 96-well plates (solid black 96-well flat-bottomed non-treated plates with no lid; Corning Costar). All of the enzymatic studies were performed such that substrate hydrolysis rates were maintained below 10% (initial rate conditions). […] Fluorescence signals were monitored by counting photons with a spectrophotometer (Fusion universal microplate analyser; Packard) equipped with a temperature control device and a plate shaker. […] Fig 3 Effects of the divalent cation Ca^2+ on recombinant wild-type and mutated mouse APAs enzymatic activities. Purified mAPAs (2 μg) were incubated at 37°C for 30 min with 0.5 mM GluNA with various concentrations of CaCl2 in a final volume of 100 μl of 50 mM Tris-HCl buffer (pH7.4). (A), APA enzymatic activities expressed as a percentage of maximal hydrolysis velocity obtained with 4 mM Ca^2+ for each purification vs log of Ca^2+ concentration. (B), Effect of increasing Ca^2+ concentration on APA enzymatic activities.

| EC50 ([4]; 0 to 4 mM CaCl2, read-out: EC50 of activation of enzymatic activity) [µM] | increase of enzymatic activity ([4]; Ca2+ concentration raised from 0 to 4 mM) [fold] | Structure (SMILES) | Ki [1] [µM] | Ki [2] [µM] | times less efficiently inhibited than wild-type ([2]; R878A mAPA, presence of Ca2+) [times] | Ki [3] [µM] | times less efficiently inhibited than wild-type ([3]; R878K mAPA, presence of Ca2+) [times] |
| --- | --- | --- | --- | --- | --- | --- | --- |
|  |  | N[C@@H](CCC(=O)O)P(=O)(O)O [GluPO3H2, (4R)-4-amino-4-phosphonobutanoic acid] | 0.074 ± 0.0077 | 6.5 ± 0.24 | 87 | 0.619 ± 0.021 | 8 |
| 22 ± 5 | 7 | [Ca+2].[Cl-].[Cl-] [Ca^2+] |  |  |  |  |  |
